Assay results from US8677934B2 (Yissum Research Development Company of the Hebrew …, priority 2007, dated 2014).
Positions of bridges follow the written chain, without caps; N, C: chain ends. Residues, ends and D or L forms follow the SMILES beside them.

Experiments:
[1] = hemolymph extracted from 4-days old mated females, in 100 mM Tris buffer, pH 8.0; conditions: D. melanogaster, 37° C., up to 60 min
[2] = test system: trypsin activity of mated female hemolymph; assay: Trypsin inhibition assay: cleavage of N-Bnz-R-pna by mated female hemolymph; assay type: biochemical, Drosophila melanogaster; conditions: 20 min pre-incubation, with DTT
Experimental: Hemolymph sample preparation. Hemolymph from batches of 250 unmated or mated females was extracted 4 days after eclosion as in Lung and Wolfner (1999). Briefly, groups of 5 flies, punctured in the prothorax, were placed head down in chilled Eppendorf tubes (0.5 ml tube pierced in the bottom and inserted into intact 1.5 ml tubes) and centrifuged at 4° C. Tubes were inspected for presence of fat body. Ten μl of 100 mM Tris buffer, pH 8.0, was added to the first tube, and then the collected hemolymph plus Tris from tube 1 was transferred from this tube to the next tube and so on, in to pool hemolymph extracted from unmated or mated female flies.
Protease and inhibition assays. Protease activity in D. melanogaster female hemolymph was assayed using chromogenic substrates. […]
Commercial enzymes (response controls of the specific reaction mixture) were dissolved in 100 mM Tris buffer, pH 8.0, at a concentration of 5 μg/μl. […] Activity was recorded as increase in absorbance, due to the release of 4-nitroaniline, as measured using an ELISA reader with 405 nm filter in an ELISA Plate Reader (ELx800, Bio-Tek Instruments). Values are relative absorbance readings, obtained with equal fly-equivalents of hemolymph as source of protease. […] Hemolymph protein content was measured spectroscopically at 280 nm, and was 0.5-1 μg per female. […]

[3] = mated female hemolymph (50 D. melanogaster female-equivalents); conditions: 37° C., up to 40 min
[4] = test system: CA of young unmated female C. capitata; assay: In-vitro synthesis of JHB3 by the corpus allatum; design: species or system Ceratitis capitata; conditions: DrmSP with its N-terminal motif
D. melanogaster females [5] = assay: Receptivity assay, ectopic expression in unmated females by heat-inducible GAL4 driver (hsp70-GAL4); assay type: in vivo, Drosophila melanogaster; conditions: for duration of rejection behavior (kicking and extruding ovipositor): days examined
Experimental: Heat shock. Transgenic unmated females carrying the mutated T-SP (hsp70-GAL4; UAS-T-SPX) were placed in empty vials supplemented with moisture filter paper. Files were placed in water bath and heated gradually from 25 to 37° C. Flies were kept at this temperature for 1 hr thereafter returned to room temperature for one hour for recovery. Recovered heat-shocked flies were placed in food vials and kept at 25° C. until used.
(§1) Receptivity assay. Single unmated females of each homogenous UAS-T-SP transgene (see also Table 2) were placed in a food vial with single unmated 3-5-day-old males of the same UAS-T-SP transgene. Two parameters were monitored for one hour: (i) Receptivity rate—the number of female that mated; (ii) courtship behavior—whether or not female performed a rejection behaviors (kicking and extruding their ovipositor). […] For that a group of 10 females were isolated from each group and their behavior was inspected. […] These females will be exposed in the next day to newly unmated 3-5-day-old males (see section developing bioassay for additional details).
To examine the effect of the modified T-SP on female receptivity we first developed a sensitive bioassay that provided optimal conditions to test the transgenes. […] We examined two independent lines to determine the effect of exposure to one or two males and whether a window of one hour would be sensitive enough to detect changes in female behavior. Four-day-old unmated females were placed with one or two males in a fresh food vial and their behavior was documented. Mated females were separated from males and left in the food vials. Twenty four hours later the females were re-exposed to unmated 3-day-old males and inspected for mating encounter and courting behavior for 1 hour. […] About 50% of the females re-mated after 4 to 5 days (FIGS. 7A-B).
Since a change in the willingness of the female to mate is expressed in their behavior, we next developed a qualitative behavioral bioassay. Mated females reject the courting males by extruding their ovipositor toward the male and/or by kicking the courting male. Theses behaviors are not seen in unmated females. We set up a system in which we inspected whether or not the female kicks the male and extrudes her ovipositor toward the male (see material and methods), both of which are predictors of female receptivity status.

D. melanogaster females [6] = assay: Receptivity assay, peptide expressed in male accessory glands and transferred to the female during mating; assay type: in vivo, Drosophila melanogaster; conditions: transgene received from male seminal fluid, FIG. 14
From the text: Transgenic flies. The GAL4-UAS system, first described by Brand and Perrimon (1993), was used for transgenesis of D. melanogaster. Briefly, T-SP was cloned into the pUAST vector, which bears an upstream activating sequence (UAS) site able to bind to the yeast transcription factor GAL4. Two separate fly lines are reared, the one (UAS) bearing the gene(s) to be transcribed and a chosen promoter (target line), the second being the GAL4 activating line. By select and controlled crossing of these two parent lines, the transgene, in this case T-SP or its amino-acid substituted homolog, is activated and expressed in the filial generation, at different times during development, and/or in select tissues, dependent on the promoter and inducer utilized. In this case, the GAL4 gene is under the control of the accessory gland specific promoter 26Aa that is induced only in the accessory glands (Park et al., 1994).
RT-PCR. Expression was induced by a heat-inducible GAL4 driver (hsp70-GAL4), or with the Acp26Aa GAL4 driver (Acp26Aa-GAL4) which, restricts expression to the male accessory glands exclusively. To verify the expression of T-SP, groups of 10 heat-shocked females were taken at different time post-heat-shock, placed in Eppendorf tubes, quick-frozen in liquid nitrogen and kept at −80° C. until subject to RNA extraction. mRNA extraction was performed with Dynabeads (Invitrogen) according to the manufacturer's instructions.
as §1, with “details). […]” for “details).”

[7] = assay type: in vitro ADME, Drosophila melanogaster
Experimental: Liquid Chromatography—Mass Spectrometery (LC-MS/MS). Hemolymph was prepared as described in section 2.3, except that 50 D. melanogaster female-equivalents of unmated or mated female flies were used for 30 min incubations with 20 μg of T-SP. Reactions were terminated and processed as detailed in section 2.5. The supernatants of the methanol precipitations were lyophilized and resuspended by sonication in 100 μl of loading buffer (5% acetonitrile, 0.1% formic acid) and analyzed by LC-MS/MS. Briefly, the peptide mixtures were run in an Agilent 1100 series micro-flow HPLC system (Agilent Technologies, Inc., Palo Alto, Calif.) coupled to an Esquire-HCT ion trap mass spectrometer through the online nano-ESI ion source (Broker Daltonik GmbH, Bremen). Peptides were separated on a Protein-15-C18-150 microbore column (Micro-Tech Scientific, Cousteau, Court Vista, Calif.) using a 5% to 30% gradient of acetonitrile in 0.1% formic acid for 37 min at […], at a flow rate of 1 μl/min. MS and MS2 spectra were acquired in a data-driven way with parameters optimized for peptide mixture analysis. The resulting MS/MS chromatograms were processed by the DataAnalysis 3.1 application and further analysed with BioTools 2.2 (Broker Daltonik GmbH, Bremen) and MASCOT (Matrix Science), assuming the unknown specificity of the hemolymph protease. A 95% confidence interval was set as threshold. […]

Elastase = Elastase from porcine pancreas in 100 mM Tris buffer, pH 8.0; conditions: 37° C., up to 60 min
[8] = hsp70-GAL4 driver, FIG. 10, wild-type threshold 4-5 days
[9] = other independent lines, FIG. 11, n=20

## N-Succinyl-Ala-Ala-Pro-Ile-pna
[1]
  cleaved bond: I-pna

## Cc1ccc(S(=O)(=O)N[C@@H](CCCCN)C(=O)CCl)cc1.Cl [TLCK, Na-p-Tosyl-L-lysine chloromethyl ketone hydrochloride]
[2]; TLCK 1 mM final
  reduced cleavage of N-Bnz-R-pna: 40%

## Z-Gly-Gly-Leu-p-Nitroanilide
[1]
  not cleaved: Neither chymotrypsin nor subtilisin activity were evident

## KPTKFPIPSPNPRDKWCRLNLGPAWGGRC
[3]
  cleaved bond: R25-L26, major, 30 min

## DrmSP: Drosophila melanogaster Sex Peptide; mature form a linear peptide of 36 amino acids with an S-S bridge
[4]
  effect on in-vitro synthesis of JHB3: depresses

## N-Succinyl-Ala-Ala-Ala-pna
[1]
  not cleaved: elastase activity was not observed

## T-SPQ: T-SP with arginine at position 25 substituted with glutamine, KPTKFPIPSPNPRDKWCQLNLGPAWGGRC (SEQ ID NO: 12); expressed transgenically
D. melanogaster females [5]; [8]
  duration of induced female non-receptivity: 8 days
D. melanogaster females [5]; hsp70-GAL4 driver
  duration of rejection behavior (kicking and extruding ovipositor): 8 days
D. melanogaster females [5]; [9]
  duration of induced female non-receptivity: 8 days
D. melanogaster females [6]
  percentage of re-mating compared with T-SP: lower percentages
  time at which females commenced re-mating after the first mating: 5 days

## N-Succinyl-Ala-Ala-Pro-Leu-pna
[1]
  cleaved bond: L-pna

## CC[C@H](C)[C@H](NC(=O)[C@@H]1CCCN1C(=O)[C@H](Cc1ccccc1)NC(=O)[C@H](CCCCN)NC(=O)[C@@H](NC(=O)[C@@H]1CCCN1C(=O)[C@@H](N)CCCCN)[C@@H](C)O)C(=O)N1CCC[C@H]1C(=O)N[C@@H](CO)C(=O)N1CCC[C@H]1C(=O)N[C@@H](CC(N)=O)C(=O)N1CCC[C@H]1C(=O)N[C@@H](CCCNC(=N)N)C(=O)N[C@@H](CC(=O)O)C(=O)N[C@@H](CCCCN)C(=O)N[C@@H](Cc1c[nH]c2ccccc12)C(=O)N[C@H]1CSSC[C@@H](C(=O)O)NC(=O)[C@H](CCCNC(=N)N)NC(=O)CNC(=O)CNC(=O)[C@H](Cc2c[nH]c3ccccc23)NC(=O)[C@H](C)NC(=O)[C@@H]2CCCN2C(=O)CNC(=O)[C@H](CC(C)C)NC(=O)[C@H](CC(N)=O)NC(=O)[C@H](CC(C)C)NC(=O)[C@H](CCCNC(=N)N)NC1=O [T-SP] (H-KPTKFPIPSPNPRDKWCRLNLGPAWGGRC-OH; disulfide 17-29; N-terminus and C-terminus assumed)
D. melanogaster females [5]; [8]
  duration of induced female non-receptivity: 8 days
D. melanogaster females [5]; hsp70-GAL4 driver
  duration of rejection behavior (kicking and extruding ovipositor): 8 days
D. melanogaster females [5]; [9]
  duration of induced female non-receptivity: 8 days
D. melanogaster females [6]
  time at which females commenced re-mating after the first mating: three
[7]
  number of different fragments yielded: 11
  number of fragments obtained: five

## N-Succinyl-Ala-Ala-Val-pna
Elastase
  cleaved bond: V-pna
[1]
  cleaved bond: V-pna

B1: Bowman-Birk inhibitor (protein)
chain: DDESSKPCCDQCACTKSNPPQCRCSDMRLNSCHSACKSCICALSYPAQCFCVDITDFCYEPCKPSEDDKEN
[2]; BBI 5 μM final
  reduced cleavage of N-Bnz-R-pna: 78%
